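In this assay, cells in 96-well plates receive the compound at five concentrations for 48 hours. Endpoints are linearly interpolated between the surrounding concentrations. The concentration for 50% growth inhibition is given as GI50. Definition used: TGI = concentration required for complete inhibition of growth.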
Assays:
Assay in all cases: NCI tumour cell line growth inhibition, 48 h
TK-10 renal = test system: TK-10 renal
UO-31 renal = test system: UO-31 renal
HCT-116 colon = test system: HCT-116 colon
MDA-MB-435 = test system: MDA-MB-435
MOLT-4 leukemia = test system: MOLT-4 leukemia
M14 melanoma = test system: M14 melanoma
HT29 colon = test system: HT29 colon
MCF7 breast = test system: MCF7 breast
NCI-H522 lung = test system: NCI-H522 lung
KM12 colon = test system: KM12 colon

| SMILES | TGI (TK-10 renal) [µM] | TGI (UO-31 renal) [µM] | TGI (HCT-116 colon) [µM] | TGI (MDA-MB-435) [µM] | TGI (MOLT-4 leukemia) [µM] | TGI (M14 melanoma) [µM] | TGI (HT29 colon) [µM] | TGI (MCF7 breast) [µM] | TGI (NCI-H522 lung) [µM] | TGI (KM12 colon) [µM] | GI50 (MDA-MB-435) [µM] | GI50 (TK-10 renal) [µM] | GI50 (UO-31 renal) [nM] | GI50 (MOLT-4 leukemia) [nM] | GI50 (HT29 colon) [nM] | GI50 (MCF7 breast) [nM] |
| --- | --- | --- | --- | --- | --- | --- | --- | --- | --- | --- | --- | --- | --- | --- | --- | --- |
| Cc1nc2nnc(CCCCCCCCc3nnc4nc(C)[nH]n34)n2[nH]1 | > 100 | > 100 | > 100 | > 100 | > 100 | > 100 | > 100 | > 100 | > 100 | > 100 |  |  |  |  |  |  |
| COc1ccc2nc(-c3ccc(N)cc3)sc2c1 | > 100 | > 100 | > 100 | > 100 | > 100 | > 100 | > 100 | > 100 | > 100 | > 100 |  |  |  |  |  |  |
| COC(OC)c1cccc2c1C(=O)CCC1(CC2)OCCCCO1 | > 100 | > 100 | > 100 |  | > 100 | > 100 | > 100 |  | > 100 | > 100 |  |  |  |  |  |  |
| O=[N+]([O-])c1ccc(CSC2=C(c3ccc(Cl)cc3)S/C(=C3\SC(SCc4ccc([N+](=O)[O-])cc4)=C(c4ccc(Cl)cc4)S3)S2)cc1 | > 100 |  | > 100 | > 100 | > 100 | > 100 | > 100 | > 100 | > 100 | > 100 |  |  |  |  |  |  |
| Cc1cc2c3ccccc3n3c2c2c1OC1(C)CCC(C2C1)C3(C)C (stereo unspecified) | > 25 | > 25 | > 25 |  | > 25 | > 25 | > 25 |  | > 25 | > 25 |  |  |  |  |  |  |
| CCn1c(=O)c2nc(SC)sc2n(-c2ccccc2)c1=S | > 100 | 35.4 | > 100 | > 100 | > 100 | > 100 | > 100 | > 100 | > 100 | > 100 |  |  |  |  |  |  |
| C#C[C@]1(O)CC[C@H]2[C@@H]3CCC4=C/C(=N/OC(=O)c5cccc6cc7ccccc7nc56)CC[C@@H]4[C@H]3CC[C@@]21CC |  |  | > 100 | > 100 | > 100 | > 100 | > 100 | > 100 |  | > 100 |  |  |  |  |  |  |
| CSC(SC)=C(C#N)C(=O)Nc1ccc(Cl)cc1 | 72.6 | 65.2 | > 100 | > 100 | 89.6 | > 100 | > 100 | > 100 |  | > 100 |  |  |  |  |  |  |
| C/C(=C\COP(=O)(O)OP(=O)(O)O)CC/C=C(\C)CNc1c(F)c(F)c(F)c(F)c1F | > 100 | > 100 | > 100 | > 100 | > 100 | > 100 | > 100 | > 100 | > 100 | > 100 |  |  |  |  |  |  |
| C[N+]1(CC[N+]2(C)CCCC2c2cccnc2)CCCC1c1cccnc1 (stereo unspecified) | > 100 | > 100 | > 100 | > 100 | > 100 | > 100 | > 100 | > 100 | > 100 | > 100 |  |  |  |  |  |  |
| Cc1ccc2c(c1)CC1(Cc3cc(C)ccc3C1=O)C2=O | > 100 | > 100 | > 100 | > 100 | > 100 | > 100 | > 100 | > 100 | > 100 |  |  |  |  |  |  |  |
| Cc1cccc(NC(=S)NNC(=O)c2cc(-c3ccccc3)nc3ccccc23)c1 | > 100 | 57.1 | 48.4 | 85.7 | 84.3 | > 100 | > 100 | 57.2 | 85.8 | > 100 |  |  |  |  |  |  |
| Cc1[nH]c2c(C)c3c([nH]c4ccc(Cl)cc43)c(C)c2c(=O)c1C | 24.1 | 38.9 | 11.3 | > 53.5 | 8.44 | > 100 | 12.8 | 6.9 | 12.9 | 77.2 |  |  |  |  |  |  |
| CN(C)CCCn1c(-c2ccc(Br)cc2)csc1=Nc1ccccc1 | 31.7 | 30.2 |  | 61.5 | 59.2 | 32.9 |  | 54 |  | 26.4 |  |  |  |  |  |  |
| NC1=Nc2ncccc2C(=O)NN1 | > 10 | > 10 | > 10 | > 10 | > 10 | > 10 | > 10 | > 10 |  | > 10 |  |  |  |  |  |  |
| CCOC(=O)c1c(NS(=O)(=O)c2ccccc2)sc2c1CCCC2 | > 100 | > 100 | > 100 |  | > 100 | > 100 | > 100 | > 100 |  | > 100 |  |  |  |  |  |  |
| COc1cccc(C2c3cc4c(cc3OC(NNS(=O)(=O)c3ccc(C)cc3)C2C)OCO4)c1O (stereo unspecified) | 95.2 | > 100 | 30.1 | 92.4 | 52.1 | > 100 | 47.1 | 51.2 | 35.9 | 79.2 |  |  |  |  |  |  |
| CNC(=O)OC1/C(C)=C\C(C)C(O)C(OC)CC(C)CC2=C(OC)C(=O)C=C(C2=O)N(C)C(=O)/C(C)=C/C=C\C1OC (stereo unspecified) | 22 | 31.7 | 21.1 | > 100 | 3.74 | 18.4 | 17 |  | 6.09 | 26.3 | > 100 |  |  |  |  |  |
| C=CC[PH+](c1ccccc1)c1ccccc1.C=CC[PH+](c1ccccc1)c1ccccc1.[Pt+2].[S-]c1nc2ccccc2[nH]1.[S-]c1nc2ccccc2[nH]1 | 67.4 | 36.5 |  |  | > 100 |  | > 100 | 9.91 |  |  |  | 3.29 | 2580 | 2870 | 2620 | 2570 |
| O=C(OC[C@H]1C[C@H]2C(=O)OCCC[C@H]2O1)c1ccccc1 | > 100 | > 100 | > 100 | > 100 | > 100 | > 100 | > 100 | > 100 | > 100 | > 100 |  |  |  |  |  |  |
| COC(=O)[C@@H]1CN(C(=O)Cc2ccccc2)C(=O)N1 | > 100 | > 100 | > 100 | > 100 | > 100 | > 100 | > 100 |  | > 100 | > 100 |  |  |  |  |  |  |
| Cc1cc2nc3c(N)nn(CCCN(C)C)c3nc2cc1C | > 100 | > 100 | > 100 | > 100 |  | > 100 | > 100 | > 100 |  | > 100 |  |  |  |  |  |  |
